Assay results as given in patent publication US20030157155A1, “Compositions for use as penetration promoters in transdermal formulations for highly lipophilic active ingredients” (priority 2000, published 2003).

Columns and labels:
[1] = octanol/water partition coefficient

SMILES	logP (physchem)	logP [1]
CN(CCCCC[C@@H]1Cc2cc(O)ccc2[C@@H]2[C@@H]1[C@@H]1CC[C@H](O)[C@@]1(C)C[C@@H]2F)CCCSCCCC(F)(F)C(F)(F)F [antiestrogen 1, 11β-fluoro-7α-{5-[N-methyl-N-3-(4,4,5,5,5-pentafluoropentylthio)propylamino]pentyl}estra-1,3,5(10)-triene-3,17β-diol]	5.8	–
CN(CCCCCCC(F)(F)C(F)(F)C(F)(F)C(F)(F)F)CCCCC[C@@H]1Cc2cc(O)ccc2[C@@H]2[C@@H]1[C@@H]1CC[C@H](O)[C@@]1(C)C[C@@H]2F [antiestrogen 2, 11β-fluoro-7α-{5-[methyl-(7,7,8,8,9,9,10,10,10-nonafluorodecyl)amino]pentyl}estra-1,3,5(10)-triene-3,17β-diol]	–	7.8
